Patent US20090124555A1, “USE OF HISTOGRANIN AND HISTOGRANIN-LIKE COMPOUNDS AS INHIBITORS OF P2X7 RECEPTOR FUNCTION AND AS ANTI-ARTHRITIC AGENTS” (priority 2005, published 2009)

Key:
P2X7 receptor [1] = target: T1, P2X7 receptor (Rattus norvegicus, UniProt Q64663); assay: ATP-induced membrane permeabilization and pore formation (ethidium bromide uptake) in alveolar macrophages; assay type: cell-based; settings: for ATP-mediated permeabilization to ethidium bromide / inhibition of ATP-induced pore formation (ethidium bromide uptake): ATP 5 mM; for ATP-mediated permeabilization to ethidium bromide / BzATP-mediated permeabilization to ethidium bromide: pre-treatment with oATP 0.1 mM 2 h or BBG 5×10^−9M 5 min; for BzATP-mediated permeabilization to ethidium bromide / inhibition of BzATP-induced pore formation: BzATP 0.5 mM; for inhibition of ATP-induced pore formation (ethidium bromide uptake): 5 min, compound 10^−9M; for inhibition of ATP-induced pore formation (ethidium bromide uptake) / inhibition of BzATP-induced pore formation: rat alveolar macrophages, FIG. 1A
T1 construct: Alveolar macrophages (AM) were recovered from normal rats by bronchoalveolar lavage; endogenous in cells; host or cells: primary alveolar macrophages from male Wistar rats (bronchoalveolar lavage)
T1 sequence (Q64663 1-595): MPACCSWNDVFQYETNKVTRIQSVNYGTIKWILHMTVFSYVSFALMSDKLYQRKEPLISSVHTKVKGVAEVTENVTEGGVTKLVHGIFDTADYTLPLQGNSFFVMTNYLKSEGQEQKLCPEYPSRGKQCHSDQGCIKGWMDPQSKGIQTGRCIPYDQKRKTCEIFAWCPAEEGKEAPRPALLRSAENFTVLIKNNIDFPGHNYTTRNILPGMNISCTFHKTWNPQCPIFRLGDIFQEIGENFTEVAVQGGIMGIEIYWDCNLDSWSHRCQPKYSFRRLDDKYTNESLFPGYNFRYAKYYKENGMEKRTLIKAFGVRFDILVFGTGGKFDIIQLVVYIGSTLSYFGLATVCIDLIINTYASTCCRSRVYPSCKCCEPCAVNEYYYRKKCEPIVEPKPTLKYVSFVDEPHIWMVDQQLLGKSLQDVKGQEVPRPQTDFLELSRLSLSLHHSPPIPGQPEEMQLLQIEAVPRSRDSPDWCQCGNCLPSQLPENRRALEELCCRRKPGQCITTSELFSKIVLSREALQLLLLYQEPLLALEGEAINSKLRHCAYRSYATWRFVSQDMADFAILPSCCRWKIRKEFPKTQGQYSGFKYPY
Procedure: Alveolar macrophages (AM) were recovered from normal rats by bronchoalveolar lavage (BAL) as described previously (Lemaire (1991) Am. J. Pathol. 138:487-495). The lungs were lavaged with 7 ml-aliquots of sterile phosphate buffered saline (pH 7.4; Wisent, St. Bruno, QC), and BAL cells were obtained by centrifugation at 200×g at 4° C. for 5 minutes. The cells were resuspended in RPMI 1640 medium (Wisent, St-Bruno, QC) supplemented with 0.5% dialysed fetal bovine serum (Wisent. St-Bruno, QC), 0.005% gentamycin (Schering Canada Inc. Pointe Claire. QC) and 0.8% HEPES (Sigma Chemical Co., St-Louis, MO) which will henceforth be referred to as complete culture medium (CM).
Freshly isolated AM (1×10^5) were incubated in 200 μl complete medium in 96 wells tissue culture plates for 24 h. Following centrifugation, medium was replaced with saline solution containing 125 mM NaCl, 5 mM KCL, 1 mM MgSO4, 1 mM Na2HPO4, 5.5 mM glucose, 5 mM NaHCO3, 1 mM CaCl2 and 20 mM Hepes, pH 7.6. Ethidium bromide was added to a final concentration of 20 μM and AM were stimulated with ATP (5 mM, Sigma), 3′-O-(4-benzoylbenzoyl ATP (BzATP) (0.5 mM, Molecular Probes) or uridine 5′-triphosphate (UTP) (Sigma), at 37° C. for 5 minutes. In some experiments, cells were pre-treated with oxidized ATP (oATP, 0.1 mM, Sigma) for 2 h or Brilliant Blue G (BBG, 5×10^−9M, Sigma) for 5 minutes, or HN compounds for 5 minutes before ATP stimulation. After ATP stimulation, the plate was centrifuged (200×g, 1 minute), culture supernatants were replaced with fresh buffer and the fluorescence was analyzed using a Zeiss Axiovert S1100 TV inverted microscope equipped with a rhodamine filter and a 32× objective. Images were captured and analysed with the Northern Eclipse image analysis software. Data are expressed as percentage of cells that become permeabilized to ethidium bromide.

P2X7 receptor [2] = target: T1, P2X7 receptor; assay: ATP-induced extracellular release of IL-1.beta and IL-1.alpha from macrophages in vitro (ELISA); assay type: cell-based
Procedure: Alveolar macrophages (1×10^6 cells/ml) were incubated in complete medium in 96 wells tissue culture plates overnight at 37° C. in 5% CO2. The medium was changed for fresh medium and cells were incubated with Lipopolysaccharide (LPS. 1 μg/ml) (Sigma) for 3 h followed by ATP (5 mM) or 3′-0-(4-benzoylbenzoyl ATP (BZATP) (0.5 mM. Molecular Robes) for 1 h in the presence and absence of HN compounds (10^−9M and 10^−8M) or Brilliant Blue G (BBG, 5×10^−9 M, Sigma). In some experiments, cells were pre-treated with oxidized ATP (oATP, 100 μM, Sigma) for 2 h before LPS and ATP or BzATP stimulation. In other experiments, cells were stimulated with LPS (1 μg/ml) for 3 h and subsequently with Nigericin (20 μM) for 30 min in the presence and absence of HN compounds (10^−9, 10^−8M). Controls were incubated with LPS only. After incubation, cell culture media were collected, centrifuged in a microfuge (Eppendorf) and the cell-free supernatants were collected and stored at −80° C. for cytokine measurement. Levels of immunoreactive IL-1.beta and IL-1.alpha were assayed using ELISA (R&D Systems, Minneapolis, Minn. and Biosource (Medicorp), Camarillo, Calif. respectively) performed according to the manufacturer's protocol.

P2X7 receptor [3] = target: T2, P2X7 receptor (Mus musculus, UniProt Q9Z1M0); assay: ATP-induced extracellular release of IL-1.beta, IL-1.alpha and IL-6 in vivo (peritoneal lavage of LPS-primed mice); settings: 0.1 mg and 0.3 mg i.p. 15 min before ATP, FIG. 6B
T2 construct: from tissue; host or cells: living mice; peritoneal cavity (lavage fluid analysed)
T2 sequence (Q9Z1M0 1-595): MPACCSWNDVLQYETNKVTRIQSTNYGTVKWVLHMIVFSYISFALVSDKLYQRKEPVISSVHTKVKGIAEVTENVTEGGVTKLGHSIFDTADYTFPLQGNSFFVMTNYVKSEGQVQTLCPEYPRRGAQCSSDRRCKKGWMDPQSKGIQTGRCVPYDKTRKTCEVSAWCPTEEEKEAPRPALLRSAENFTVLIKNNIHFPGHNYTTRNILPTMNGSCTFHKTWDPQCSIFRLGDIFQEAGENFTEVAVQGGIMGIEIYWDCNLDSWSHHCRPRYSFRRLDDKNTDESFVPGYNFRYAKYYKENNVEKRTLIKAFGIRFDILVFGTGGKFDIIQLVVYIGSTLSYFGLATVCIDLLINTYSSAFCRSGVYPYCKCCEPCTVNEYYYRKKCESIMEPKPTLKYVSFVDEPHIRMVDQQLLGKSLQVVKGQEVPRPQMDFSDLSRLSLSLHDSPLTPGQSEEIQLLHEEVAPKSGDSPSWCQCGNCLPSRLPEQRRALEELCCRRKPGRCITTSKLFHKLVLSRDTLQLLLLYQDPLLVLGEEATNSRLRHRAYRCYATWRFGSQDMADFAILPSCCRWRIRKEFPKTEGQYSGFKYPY
Procedure: Groups of mice were injected intraperitoneally (i.p.) with 50 μg of LPS. Two hours after this LPS injection, mice were injected i.p. with either PBS or ATP (5 mM, adjusted to pH 7), or with HN compounds (0.1 mg and 0.3 mg) 15 minutes before ATP injection. Mice were sacrificed 30 minutes (IL-1.beta and IL-1.alpha) or 120 minutes (IL-6) after the ATP or PBS injection and peritoneal cavities were lavaged each with 3 ml PBS. Samples of peritoneal lavages were centrifuged, cell-free supernatants were collected and tested for the presence of IL-1.beta, IL-1.alpha and IL-6 using ELISA (R&D Systems, Minneapolis, Minn., and Biosource, Camarillo, Calif., respectively).

P2X7 receptor [4] = target: T1, P2X7 receptor; assay: ATP-induced apoptosis, cell death ELISA of cytoplasmic oligonucleosomal DNA; assay type: cell-based; settings: ATP 5 mM 30 min, read after 24 h; compound 10^−9M
Procedure: This assay using mouse monoclonal antibodies directed against DNA and histones respectively, allows the quantitative determination of mono- and oligonucleosomes in the cytoplasmic fraction of cell lysates prepared from macrophages (Li et al. (1997) Toxicol. Appl. Pharmacol. 145:331-339). Alveolar macrophages (1×10^5) were incubated in 200 μl complete medium in 96 wells tissue culture plates with ATP (5 mM) in the presence and absence of HN compounds for 30 minutes and media was replaced with fresh culture media. After 24 h, the plate was centrifuged, the culture supernatants removed and macrophages were lysed in lysis buffer for 30 min on ice and centrifuged at 14,000 rpm for 15 min at 4° C. Cytoplasmic oligonucleosomal DNA was measured in cell supernatants by ELISA.

Compound: CCOc1ccc(Nc2ccc(/C(=C3C=C/C(=[N+](/CC)Cc4cccc(S(=O)(=O)[O-])c4)C=C/3C)c3ccc(N(CC)Cc4cccc(S(=O)(=O)[O-])c4)cc3C)cc2)cc1.[Na+] [Brilliant Blue G, reference compound]
- ATP-mediated permeabilization to ethidium bromide (P2X7 receptor [1]): blocked
- BzATP-mediated permeabilization to ethidium bromide (P2X7 receptor [1]): blocked
- BzATP-induced IL-1.beta release (P2X7 receptor [2]; LPS-primed macrophages, BzATP 0.5 mM, BBG 5×10^−9M, FIG. 3A): significantly reduced

Compound: N=C(N)NCCC[C@@H](Nc1ccccc1NC(=O)Cc1ccc(O)cc1)C(N)=O [C-12, N-5-guanidinopentanamide-(2R)-yl-2-N-(p-hydroxphenylacetyl) phenylenediamine]
- inhibition of ATP-induced pore formation (ethidium bromide uptake) (P2X7 receptor [1]): inhibited significantly
- IL-1.beta in peritoneal lavage in response to ATP, various HN compounds (P2X7 receptor [3]): reduced levels

Compound: N=C(N)NCCC[C@@H](Nc1ccc(C(=O)c2ccc(Cl)cc2)cc1NC(=O)Cc1ccc(O)cc1)C(N)=O [C-13, N-5-guanidinopentanamide-(2R)-yl-2-N-(p-hydroxyphenylacetyl)-4-(p-chlorobenzoyl)-phenylenediamine]
- IL-1.beta in peritoneal lavage in response to ATP, various HN compounds (P2X7 receptor [3]): reduced levels

Compound: N=C(N)NCCC[C@H](C(N)=O)n1c(Cc2ccc(O)cc2)nc2cc(C(=O)O)ccc21 [C-15, N-5-guanidinopentanamide-(2R)-yl 2-(p-hydroxylbenzyl)5-carboxybenzimidazole]
- inhibition of ATP-induced pore formation, concentration-response (P2X7 receptor [1]; 10^−12 M to 10^−6 M, dose-dependent manner, FIG. 1B): inhibited
- inhibition of ATP-induced pore formation (ethidium bromide uptake) (P2X7 receptor [1]): inhibited significantly
- inhibition of BzATP-induced pore formation (P2X7 receptor [1]): inhibit
- cytoplasmic oligonucleosomal DNA in response to ATP (P2X7 receptor [4]): inhibited
- inhibition of extracellular IL-1.beta release, ATP stimulation (P2X7 receptor [2]; LPS 3 h then ATP 5 mM 1 h, compound 10^−9 M, FIG. 3A): significant inhibition
- inhibition of extracellular IL-1.beta release, BzATP stimulation (P2X7 receptor [2]; LPS 3 h then BzATP 0.5 mM 1 h, compound 10^−9 M, FIG. 3A): significant inhibition
- IC50 (P2X7 receptor [2]; LPS-primed rat alveolar macrophages, ATP 5 mM, FIG. 3B, read-out: half-maximal response, inhibition of ATP-induced IL-1.beta release): ~0.1 nM
- inhibition of ATP-induced IL-1.beta release, concentration-response (P2X7 receptor [2]; inhibition already seen at 10^−12M, FIG. 3B): dose-dependent
- IL-1.beta in peritoneal lavage in response to ATP, various HN compounds (P2X7 receptor [3]): reduced levels

Compound: Nc1ncnc2c1ncn2[C@@H](C=O)O[C@@H](C=O)COP(=O)(O)OP(=O)(O)OP(=O)(O)O [oATP, oxidized ATP, reference compound]
- ATP-mediated permeabilization to ethidium bromide (P2X7 receptor [1]): blocked
- BzATP-mediated permeabilization to ethidium bromide (P2X7 receptor [1]): blocked
- ATP-induced IL-1.beta release (P2X7 receptor [2]; LPS-primed macrophages, ATP 5 mM, oATP 100 μM pre-treatment 2 h, FIG. 3A): significantly reduced

Compound: Cyclic (-Gly-(p-chloro)Phe-Tyr-D-Arg-) (GFYR; HELM PEPTIDE1{G.[O=C([C@H](Cc1ccc(Cl)cc1)N[*:1])[*:2]].Y.[dR]}$PEPTIDE1,PEPTIDE1,1:R1-4:R2$$$V2.0; SMILES N=C(N)NCCC[C@H]1NC(=O)[C@H](Cc2ccc(O)cc2)NC(=O)[C@H](Cc2ccc(Cl)cc2)NC(=O)CNC1=O) [C-10]
- inhibition of ATP-induced pore formation (ethidium bromide uptake) (P2X7 receptor [1]): inhibited significantly
- inhibition of BzATP-induced pore formation (P2X7 receptor [1]): inhibit
- IL-1.beta in peritoneal lavage in response to ATP, various HN compounds (P2X7 receptor [3]): reduced levels

Compound: Cyclic (-Gly-D-Gln-Tyr-D-Arg-) (GQYR; HELM PEPTIDE1{G.[dQ].Y.[dR]}$PEPTIDE1,PEPTIDE1,1:R1-4:R2$$$V2.0; SMILES N=C(N)NCCC[C@H]1NC(=O)[C@H](Cc2ccc(O)cc2)NC(=O)[C@@H](CCC(N)=O)NC(=O)CNC1=O) [C-8]
- inhibition of ATP-induced pore formation (ethidium bromide uptake) (P2X7 receptor [1]): inhibited significantly

Compound: Cyclic (-Gly-Gln-Tyr-D-Arg-) (GQYR; HELM PEPTIDE1{G.Q.Y.[dR]}$PEPTIDE1,PEPTIDE1,1:R1-4:R2$$$V2.0; SMILES N=C(N)NCCC[C@H]1NC(=O)[C@H](Cc2ccc(O)cc2)NC(=O)[C@H](CCC(N)=O)NC(=O)CNC1=O) [C-7]
- inhibition of ATP-induced pore formation (ethidium bromide uptake) (P2X7 receptor [1]): inhibited significantly

Compound: H-Gly-Gln-Gly-Arg-Thr-Leu-Tyr-Gly-Phe-COOH (H-GQGRTLYGF-OH) [C-3]
- cytoplasmic oligonucleosomal DNA in response to ATP (P2X7 receptor [4]): inhibited

Compound: H-Val-Val-Tyr-Ala-Leu-Lys-Arg-Gln-Gly-[S-(3nitro-2-pyridine sulfenyl)]Cys-Thr-Leu-Tyr-Gly-Phe- [C-5]
- IL-1.beta in peritoneal lavage in response to ATP, various HN compounds (P2X7 receptor [3]): reduced levels
